The values below come from ChEMBL document CHEMBL2331143, “Antiparkinsonian activity of some 9-N-, O-, S- and C-derivatives of 3-methyl-6-(prop-1-en-2-yl)cyclohex-3-ene-1,2-diol” (2013).

Common to all, as to assay type: functional
The test system of test [1] is Mus musculus. The test is described as follows: Antiparkinsonian activity in MPTP C57Bl/6 mouse model assessed as immobility time at 20 mg/kg, po administered 24 hrs loast last dose of MPTP measured after 2 hrs post compound dose by open field test relative to saline-treated control.
In test [2] the test system is Mus musculus. The test is described as follows: Antiparkinsonian activity in MPTP C57Bl/6 mouse model assessed as movement speed at 20 mg/kg, po administered 24 hrs loast last dose of MPTP measured after 2 hrs post compound dose by open field test relative to saline-treated control.
The subject of test [3] is Mus musculus. The test is described as follows: Antiparkinsonian activity in MPTP C57Bl/6 mouse model assessed as time of locomotor activity at 20 mg/kg, po administered 24 hrs loast last dose of MPTP measured after 2 hrs post compound dose by open field test relative to saline-treated control.
The test system of test [4] is Mus musculus. The test is described as follows: Antiparkinsonian activity in MPTP C57Bl/6 mouse model assessed as movement distance at 20 mg/kg, po administered 24 hrs loast last dose of MPTP measured after 2 hrs post compound dose by open field test relative to saline-treated control.

As to `C=C(C)[C@@H]1CC=C(C)[C@@H](O)[C@@H]1O`, the Time amounted to 50.8 s in the test on Mus musculus [1] and 69.2 s in the test with Mus musculus [3]. In addition, the values for the Activity in the test with Mus musculus [2] and in the test on Mus musculus [4] were 2.6 cm/s and 302 cm, respectively.

In the case of `C=C(CNCCN(C)C)[C@@H]1CC=C(C)[C@@H](O)[C@@H]1O`, the Time in the test on Mus musculus [1] is reported as 68.8 s; with Mus musculus [3], 51.2 s. Also, the figures for the Activity in the test on Mus musculus [2] and with Mus musculus [4] were 1.8 cm/s and 225 cm, respectively.

For `C=C(CN1CCOCC1)[C@@H]1CC=C(C)[C@@H](O)[C@@H]1O`, the Time was 71.5 s in the test with Mus musculus [1] and 48.5 s with Mus musculus [3]. For the same compound, the values for the Activity with Mus musculus [2] and with Mus musculus [4] were 1.7 cm/s and 215.3 cm, respectively.

As for `C=C(CN)[C@@H]1CC=C(C)[C@@H](O)[C@@H]1O`, the Time is recorded as 66.5 s in the test with Mus musculus [1] and 53.5 s in the test on Mus musculus [3]. For the same compound, the Activity in the test with Mus musculus [2] stood at 2 cm/s; in the test on Mus musculus [4], 248.6 cm.

Turning to `C=C(CNC1C2CC3CC(C2)CC1C3)[C@@H]1CC=C(C)[C@@H](O)[C@@H]1O` (stereo not given in full), the Time came out at 85.2 s in the test on Mus musculus [1] and 34.8 s in the test on Mus musculus [3]. For the same compound, the Activity in the test with Mus musculus [2] amounted to 1.2 cm/s; in the test on Mus musculus [4] it was 149.7 cm.

Regarding `C=C(CN1C(=O)c2ccccc2C1=O)[C@@H]1CC=C(C)[C@@H](O)[C@@H]1O`, the Time is on record as 61.7 s in the test on Mus musculus [1] and 58.3 s with Mus musculus [3]. Further, the values for the Activity with Mus musculus [2] and with Mus musculus [4] were 2.3 cm/s and 280 cm, respectively.

As to `C=C(CO)[C@@H]1CC=C(C)[C@@H](O)[C@@H]1O`, the Time in the test with Mus musculus [1] is 80 s; in the test on Mus musculus [3], 37.2 s. Further, the Activity with Mus musculus [2] was found to be 1.5 cm/s; in the test on Mus musculus [4] it was 182.1 cm.

Regarding `C=C(CCCCC)[C@@H]1CC=C(C)[C@@H](O)[C@@H]1O`, the Time in the test on Mus musculus [1] is 56.8 s; in the test on Mus musculus [3], 63.2 s. For the same compound, the Activity was 2.7 cm/s with Mus musculus [2] and 335.2 cm in the test on Mus musculus [4].

On to `C=C1CO[C@H]2[C@H](O)C(C)=CC[C@@H]12`, for which the Time was 73.4 s in the test on Mus musculus [1] and 46.6 s in the test on Mus musculus [3]. In addition, the Activity in the test with Mus musculus [2] came to 1.7 cm/s; in the test on Mus musculus [4], 214 cm.

For `C=C(CSCCC)[C@@H]1CC=C(C)[C@@H](O)[C@@H]1O`, the Time in the test with Mus musculus [1] stood at 58.6 s; in the test on Mus musculus [3], 61.4 s. Further, the values for the Activity in the test on Mus musculus [2] and in the test with Mus musculus [4] were 2.6 cm/s and 317.6 cm, respectively.
